From PubChem BioAssay AID1963864 (Molecular Pharmacology Branch, DTP, NCI, 2024)
pIC50: −log10 of the molar value.

System: KRAS PDC multicell spheroid viability
Experiment: Anticancer human tumor 521955-158-R6-J3-PDC patient-derived pancreatic carcinoma cell line growth inhibition [KRAS2]
Details: for pIC50: curve of first compound; for viability, T/C: stronger effect = lower value
Outline: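 Combination screen of spheroid viability in tumor-cell co-cultures with endothelial (HUVEC) and mesenchymal stem cell stroma. Each agent was tested in half-log dilutions, topping at clinical Cmax or at 10 microM without a known Cmax.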

[1] = second compound 0.1 µM, first compound 0.00316 µM
[2] = second compound 0.1 µM, first compound 0.01 µM
[3] = second compound 0.1 µM, first compound 0.0316 µM
[4] = second compound 0.1 µM, first compound 0.1 µM
[5] = second compound 0.316 µM, first compound 0.00316 µM
[6] = second compound 0.316 µM, first compound 0.01 µM
[7] = second compound 0.316 µM, first compound 0.0316 µM
[8] = second compound 0.316 µM, first compound 0.1 µM
[9] = second compound 1 µM, first compound 0.00316 µM
[10] = second compound 1 µM, first compound 0.01 µM
[11] = second compound 1 µM, first compound 0.0316 µM
[12] = second compound 1 µM, first compound 0.1 µM
[13] = second compound 3.16 µM, first compound 0.00316 µM
[14] = second compound 3.16 µM, first compound 0.01 µM
[15] = second compound 3.16 µM, first compound 0.0316 µM
[16] = second compound 3.16 µM, first compound 0.1 µM
[17] = second compound 10 µM, first compound 0.00316 µM
[18] = second compound 10 µM, first compound 0.01 µM
[19] = second compound 10 µM, first compound 0.0316 µM
[20] = second compound 10 µM, first compound 0.1 µM
[21] = second compound 0.1 µM, first compound 0.316 µM
[22] = second compound 0.1 µM, first compound 1 µM
[23] = second compound 0.316 µM, first compound 0.316 µM
[24] = second compound 0.316 µM, first compound 1 µM
[25] = second compound 1 µM, first compound 0.316 µM
[26] = second compound 1 µM, first compound 1 µM
[27] = second compound 3.16 µM, first compound 0.316 µM
[28] = second compound 3.16 µM, first compound 1 µM
[29] = second compound 10 µM, first compound 0.316 µM
[30] = second compound 10 µM, first compound 1 µM
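Also: drug exposure lasted seven days.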
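For viability, T/C in this document: 100% = DMSO vehicle wells and lower means fewer viable cells.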

| SMILES | pIC50 (second compound 0.1 µM) | pIC50 (second compound 0.316 µM) | pIC50 (second compound 1 µM) | pIC50 (second compound 3.16 µM) | pIC50 (second compound 10 µM) | viability, T/C [1] [%] | viability, T/C [2] [%] | viability, T/C [3] [%] | viability, T/C [4] [%] | viability, T/C [5] [%] | viability, T/C [6] [%] | viability, T/C [7] [%] | viability, T/C [8] [%] | viability, T/C [9] [%] | viability, T/C [11] [%] | viability, T/C [12] [%] | viability, T/C [15] [%] | viability, T/C [16] [%] | viability, T/C [19] [%] | viability, T/C [20] [%] | further results |
| --- | --- | --- | --- | --- | --- | --- | --- | --- | --- | --- | --- | --- | --- | --- | --- | --- | --- | --- | --- | --- | --- |
| CN(C)C/C=C/C(=O)Nc1cc2c(Nc3ccc(F)c(Cl)c3)ncnc2cc1O[C@H]1CCOC1 + CNCc1ccccc1-c1csc(C(C)Nc2nc(C)nc3cc(OC)c(OC)cc23)c1 | < 7.00 | < 7.00 | < 7.00 | 8.70 | > 9.50 | 79.8 | 81.3 | 55 | 53.6 | 64.8 | 71.9 | 58.3 | 56.7 | 59.1 | 50.8 | 53 | 58.9 | 2.28 | 0.26 | 0.44 | viability, T/C (second compound 0.1 µM, first compound 0.000316 µM): 82.2%; viability, T/C (second compound 0.1 µM, first compound 0.001 µM): 77.5%; viability, T/C (second compound 0.316 µM, first compound 0.000316 µM): 82.9%; viability, T/C (second compound 0.316 µM, first compound 0.001 µM): 77.8%; viability, T/C (second compound 1 µM, first compound 0.000316 µM): 98.4%; viability, T/C (second compound 1 µM, first compound 0.001 µM): 68.2%; viability, T/C [10]: 50.7%; viability, T/C (second compound 3.16 µM, first compound 0.000316 µM): 94.9%; viability, T/C (second compound 3.16 µM, first compound 0.001 µM): 106%; viability, T/C [13]: 0.33%; viability, T/C [14]: 0.98%; viability, T/C (second compound 10 µM, first compound 0.000316 µM): 0.34%; viability, T/C (second compound 10 µM, first compound 0.001 µM): 0.24%; viability, T/C [17]: 0.21%; viability, T/C [18]: 0.52% |
| CC1(C)CCC(CN2CCN(c3ccc(C(=O)NS(=O)(=O)c4ccc(NCC5CCOCC5)c([N+](=O)[O-])c4)c(Oc4cnc5[nH]ccc5c4)c3)CC2)=C(c2ccc(Cl)cc2)C1 + C=CC(=O)N1CCN(c2nc(=O)n(-c3c(C)ccnc3C(C)C)c3nc(-c4c(O)cccc4F)c(F)cc23)C(C)C1 | 5.23 | 5.13 | 5.32 | 5.19 | 5.53 |  |  | 89.3 | 98.8 |  |  | 113 | 112 |  | 111 | 104 | 91.9 | 93.5 | 89.2 | 104 | viability, T/C [21]: 97.1%; viability, T/C [22]: 93.2%; viability, T/C (second compound 0.1 µM, first compound 3.16 µM): 72.2%; viability, T/C (second compound 0.1 µM, first compound 10 µM): 31.6%; viability, T/C [23]: 101%; viability, T/C [24]: 102%; viability, T/C (second compound 0.316 µM, first compound 3.16 µM): 77.5%; viability, T/C (second compound 0.316 µM, first compound 10 µM): 39.5%; viability, T/C [25]: 106%; viability, T/C [26]: 95.8%; viability, T/C (second compound 1 µM, first compound 3.16 µM): 65.4%; viability, T/C (second compound 1 µM, first compound 10 µM): 23.4%; viability, T/C [27]: 95.2%; viability, T/C [28]: 92.1%; viability, T/C (second compound 3.16 µM, first compound 3.16 µM): 67.2%; viability, T/C (second compound 3.16 µM, first compound 10 µM): 39.6%; viability, T/C [29]: 88.7%; viability, T/C [30]: 73.5%; viability, T/C (second compound 10 µM, first compound 3.16 µM): 49.8%; viability, T/C (second compound 10 µM, first compound 10 µM): 25.7% |
| CCN1CCN(Cc2ccc(Nc3ncc(F)c(-c4cc(F)c5nc(C)n(C(C)C)c5c4)n3)nc2)CC1 + CNCc1ccccc1-c1csc(C(C)Nc2nc(C)nc3cc(OC)c(OC)cc23)c1 | < 6.00 | < 6.00 | 6.50 | > 8.50 | > 8.50 | 75.1 | 77.8 | 70.5 | 67.1 | 77.7 | 71.9 | 74.1 | 68 | 66.8 | 63.5 | 53.8 | 0.51 | 0.75 | 0.3 | 0.21 | viability, T/C [21]: 72.1%; viability, T/C [22]: 102%; viability, T/C [23]: 67.5%; viability, T/C [24]: 80.2%; viability, T/C [10]: 70.3%; viability, T/C [25]: 54.8%; viability, T/C [26]: 30.8%; viability, T/C [13]: 0.3%; viability, T/C [14]: 0.38%; viability, T/C [27]: 0.45%; viability, T/C [28]: 0.37%; viability, T/C [17]: 0.25%; viability, T/C [18]: 0.26%; viability, T/C [29]: 0.22%; viability, T/C [30]: 0.46% |
